From patent publication US4328334A, “11-Aza-10-deoxo-10-dihydroerythromycin A and derivatives thereof as well as a process for their preparation” (PLIVA Pharmaceutical and Chemical Works, priority 1979, dated 1982)
Converted amounts (≈) assume the structure as drawn. Where two headings read alike, the source gives them in different places.

Columns and labels:
Salmonella panama = assay: in vitro minimum inhibitory concentration, Salmonella panama; type: cell-based; settings: Salmonella enterica; in vitro, Salmonella panama; read-out: minimum inhibitory concentrations (MIC)
[1] = test system: Bacillus subtilis ATCC 6633; assay: in vitro minimum inhibitory concentration, Bacillus subtilis ATCC 6633; type: cell-based; settings: ATCC6633; in vitro, Bacillus subtilis ATCC 6633; read-out: minimum inhibitory concentrations (MIC)
albino mice = assay: acute i.v. toxicity in albino mice (Litchfield-Wilcoxon); settings: mouse, in vivo, iv
[2] = as above; settings: mouse, in vivo, iv; acute i.v., albino mice
[3] = test system: Staphylococcus aureus ATCC 6538-P; assay: in vitro minimum inhibitory concentration, Staphylococcus aureus ATCC 6538-P; type: cell-based; settings: ATCC6538; in vitro, Staphylococcus aureus ATCC 6538-P; read-out: minimum inhibitory concentrations (MIC)
[4] = test system: Shigella flexneri II-1819/C; assay: in vitro minimum inhibitory concentration, Shigella flexneri II-1819/C; type: cell-based; settings: II1819/C, read-out: minimum inhibitory concentrations (MIC)
Procedure: In order to examine the antibacterial action, some new compounds were tested in vitro on a series of gram-positive and gram-negative micro-organisms. The results are shown in Table 1 as minimum inhibitory concentrations (MIC) in mcg/ml in comparision with erythromycin A erythromycin A oxime.

[5] = test system: Micrococcus flavus ATCC 10240; assay: in vitro minimum inhibitory concentration, Micrococcus flavus ATCC 10240; type: cell-based
[6] = test system: Escherichia coli ATCC 10536; assay: in vitro minimum inhibitory concentration, Escherichia coli ATCC 10536; type: cell-based; settings: ATCC10536, read-out: minimum inhibitory concentrations (MIC)
[7] = test system: Corynebacterium xerosis NCTC 9755; assay: in vitro minimum inhibitory concentration, Corynebacterium xerosis NCTC 9755; type: cell-based; settings: NCTC9755; in vitro, Corynebacterium xerosis NCTC 9755; read-out: minimum inhibitory concentrations (MIC)
[8] = test system: Staphylococcus epidermidis ATCC 12228; assay: in vitro minimum inhibitory concentration, Staphylococcus epidermidis ATCC 12228; type: cell-based; settings: ATCC12228; in vitro, Staphylococcus epidermidis ATCC 12228; read-out: minimum inhibitory concentrations (MIC)
Sarcina lutea ATCC 9341 = assay: in vitro minimum inhibitory concentration, Sarcina lutea ATCC 9341; type: cell-based; settings: Micrococcus luteus, ATCC9341, read-out: minimum inhibitory concentrations (MIC)
[9] = test system: Klebsiella pneumoniae ATCC 10031; assay: in vitro minimum inhibitory concentration, Klebsiella pneumoniae ATCC 10031; type: cell-based; settings: ATCC10031; in vitro, Klebsiella pneumoniae ATCC 10031; read-out: minimum inhibitory concentrations (MIC)
[10] = test system: Staphylococcus aureus ATCC 6538-P; assay: stability in acid medium: MIC after exposure to 1 N HCl; type: cell-based; settings: for stability in acid medium compared with erythromycin A / stability in acid medium compared with erythromycin A oxime: pH 1.2, 30 minutes to 6 hours; for MIC: ATCC6538, pH 1.2, Staphylococcus aureus ATCC 6538-P
[11] = test system: Brucella bronchiseptica ATCC 4617; assay: microbe, parasite or virus in culture; type: cell-based; settings: Bordetella bronchiseptica, ATCC4617, read-out: minimum inhibitory concentrations (MIC)
[12] = test system: Streptococcus faecalis ATCC 8043; assay: in vitro minimum inhibitory concentration, Streptococcus faecalis ATCC 8043; type: cell-based; settings: Enterococcus faecalis
[13] = test system: Pseudomonas aeruginosa NCTC 10490; assay: in vitro minimum inhibitory concentration, Pseudomonas aeruginosa NCTC 10490; type: cell-based; settings: NCTC10490; in vitro, Pseudomonas aeruginosa NCTC 10490; read-out: minimum inhibitory concentrations (MIC)
[14] = test system: Bacillus cereus var. mycoides ATCC 11778; assay: microbe, parasite or virus in culture; type: cell-based; settings: ATCC11778, read-out: minimum inhibitory concentrations (MIC)
[15] = pKb in dimethyl formamide-water; type: physicochemical; settings: dmf (66% v/v)-water; dimethyl formamide (66% v/v)-water
[16] = ATCC10240, in vitro, Micrococcus flavus ATCC 10240, read-out: minimum inhibitory concentrations (MIC)
[17] = exposure time 1/2 hour, 1 N HCl
[18] = ATCC8043, in vitro, Streptococcus faecalis ATCC 8043, read-out: minimum inhibitory concentrations (MIC)

Row | SMILES | MIC [1] [µg/mL] | MIC [3] [µg/mL] | MIC [5, 16] [µg/mL] | MIC [8] [µg/mL] | MIC (Sarcina lutea ATCC 9341) [µg/mL] | stability in acid medium compared with erythromycin A ([10]; 1 N HCl) | stability in acid medium compared with erythromycin A oxime ([10]; 1 N HCl) | MIC ([10]; exposure time 0 hours) [µg/mL] | MIC [10, 17] [µg/mL] | MIC ([10]; exposure time 1 hour, 1 N HCl) [µg/mL] | MIC ([10]; exposure time 2 hours, 1 N HCl) [µg/mL] | MIC ([10]; exposure time 3 hours, 1 N HCl) [µg/mL] | MIC ([10]; exposure time 6 hours, 1 N HCl) [µg/mL] | MIC [12, 18] [µg/mL] | MIC [14] [µg/mL] | also measured
1 | CC[C@H]1OC(=O)[C@H](C)[C@@H](O[C@H]2C[C@@](C)(OC)[C@@H](O)[C@H](C)O2)[C@H](C)[C@@H](O[C@@H]2O[C@H](C)C[C@H](N(C)C)[C@H]2O)[C@](C)(O)C[C@@H](C)CN[C@H](C)[C@@H](O)[C@]1(C)O [Compound I, 11-aza-4-0-cladinosyl-6-0-desosaminyl-15-ethyl-7,13,14-trihydroxy-3,5,7,9,12,14-hexamethyloxacyclopentadecane-2-one] | 5 (≈ 6.8 µM) | 0.5 (≈ 0.68 µM) | 0.05 (≈ 0.068 µM) | 0.5 (≈ 0.68 µM) | 0.05 (≈ 0.068 µM) | significantly more stable than erythromycin A | within the range of that of the starting antibioticum erythromycin A oxime | 0.5 (≈ 0.68 µM) | 0.5 (≈ 0.68 µM) | 0.5 (≈ 0.68 µM) | 1 (≈ 1.36 µM) | 1 (≈ 1.36 µM) | 1 (≈ 1.36 µM) | 0.5 (≈ 0.68 µM) | 0.5 (≈ 0.68 µM) | MIC (Salmonella panama): 50 µg/mL (≈ 68 µM); acute i.v. toxicity compared with erythromycin A oxime (albino mice): less toxic that the starting erythromycin A oxime; LD50 [2]: 110 mg/kg; MIC [4]: 10 µg/mL (≈ 13.6 µM); MIC [6]: 10 µg/mL (≈ 13.6 µM); MIC [7]: 1 µg/mL (≈ 1.36 µM); MIC [9]: 10 µg/mL (≈ 13.6 µM); MIC [11]: 1 µg/mL (≈ 1.36 µM); MIC [13]: 50 µg/mL (≈ 68 µM)
2 | CC[C@H]1OC(=O)[C@H](C)[C@@H](O[C@H]2C[C@@](C)(OC)[C@@H](OC(C)=O)[C@H](C)O2)[C@H](C)[C@@H](O[C@@H]2O[C@H](C)C[C@H](N(C)C)[C@H]2OC(C)=O)[C@](C)(O)C[C@@H](C)CN(C(C)=O)[C@H](C)[C@@H](O)[C@]1(C)O [Compound III, 2',4"-N-triacetyl-11-aza-10-deoxo-10-dihydroerythromycin A] | 175 (≈ 203 µM) | 150 (≈ 174 µM) | 50 (≈ 58.1 µM) | 200 (≈ 232 µM) | 10 (≈ 11.6 µM) | – | – | – | – | – | – | – | – | 125 (≈ 145 µM) | 200 (≈ 232 µM) | –
3 | CC[C@H]1OC(=O)[C@H](C)[C@@H](O[C@H]2C[C@@](C)(OC)[C@@H](OC(C)=O)[C@H](C)O2)[C@H](C)[C@@H](O[C@@H]2O[C@H](C)C[C@H](N(C)C)[C@H]2OC(C)=O)[C@](C)(O)C[C@@H](C)CN(C(C)=O)[C@H](C)[C@@H](OC(C)=O)[C@]1(C)O [Compound IV, 2',4",13,N-tetraacetyl-11-aza-10-deoxo-10-dihydroerythromycin A] | 200 (≈ 221 µM) | 200 (≈ 221 µM) | – | 200 (≈ 221 µM) | 10 (≈ 11.1 µM) | – | – | – | – | – | – | – | – | – | 175 (≈ 194 µM) | MIC ([5]; Micrococcus flavus, ATCC10240, read-out: minimum inhibitory concentrations (MIC)): 175 µg/mL (≈ 194 µM); MIC ([12]; ATCC8043, read-out: minimum inhibitory concentrations (MIC)): 175 µg/mL (≈ 194 µM)
4 | CCC(=O)N1C[C@H](C)C[C@@](C)(O)[C@H](O[C@@H]2O[C@H](C)C[C@H](N(C)C)[C@H]2O)[C@@H](C)[C@H](O[C@H]2C[C@@](C)(OC)[C@@H](O)[C@H](C)O2)[C@@H](C)C(=O)O[C@H](CC)[C@@](C)(O)[C@H](O)[C@H]1C [Compound V, N-propionyl-11-aza-10-deoxo-10-dihydroerythroycin A] | – | – | – | – | – | – | – | – | – | – | – | – | – | – | – | pKa [15]: 8.6
5 | CC[C@H]1OC(=O)[C@H](C)[C@@H](O[C@H]2C[C@@](C)(OC)[C@@H](O)[C@H](C)O2)[C@H](C)[C@@H](O[C@@H]2O[C@H](C)C[C@H](N(C)C)[C@H]2O)[C@](C)(O)C[C@@H](C)CN[C@H](C)[C@H]2OC(=O)O[C@@]21C [Compound VI, 11-aza-10-deoxo-10-dihydroerythromycin A cyclic 13,14-carbonate] | 0.5 (≈ 0.657 µM) | 1 (≈ 1.31 µM) | 0.5 (≈ 0.657 µM) | 2.5 (≈ 3.29 µM) | 0.1 (≈ 0.131 µM) | significantly more stable than erythromycin A | within the range of that of the starting antibioticum erythromycin A oxime | 1 (≈ 1.31 µM) | 1 (≈ 1.31 µM) | 1 (≈ 1.31 µM) | 2.5 (≈ 3.29 µM) | 2.5 (≈ 3.29 µM) | 2.5 (≈ 3.29 µM) | 0.05 (≈ 0.0657 µM) | 2.5 (≈ 3.29 µM) | –
